Reference: patent US20200261534A1, “NEW TREATMENTS OF MULTIPLE MYELOMA” (priority 2017, published 2020)

Experiments:
[1] = system: MM1S cells; assay: Subcutaneous xenograft model, in vivo synergy of S09 drug combinations; parameters: species or system CB17-SCID immunosuppressed mice; conditions: MM1S s.c. xenograft, CB17-SCID mice; for Tumor volume: i.p.: B 0.5, C 50, D 0.5 mg/kg days 1 and 4, S09 4 mg/kg each 12 hours
Experimental: CB17-SCID immunosuppressed mice (female) of 6-7 weeks old housed and handled in a pathogen-free zone. They were purchased from Janvier Labs (France). All experiments were carried out within the facilities of the University of Salamanca (Spain).
Control: Medium (PBS), intraperitoneally (i.p.), each 12 hours on days 1 to 5.
Treatment Groups: • Monotherapy: • Bortezomib 0.5 mg/kg i.p. on days 1 and 4. • Cyclophosphamide 50 mg/kg i.p. on days 1 and 4 • Dexamethasone 0.5 mg/kg i.p. on days 1 and 4 • S09 4 mg/kg i.p. each 12 hours on days 1 to 7 • Double combinations: • Bortezomib 0.5 mg/kg i.p. on days 1 and 4+S09 4 mg/kg i.p. each 12 hours on days 1 to 7 • Cyclophosphamide 50 mg/kg i.p. on days 1 and 4+S09 4 mg/kg i.p. each 12 hours on days 1 to 7 • Dexamethasone 0.5 mg/kg i.p. on days 1 and 4+S09 4 mg/kg i.p. each 12 hours on days 1 to 7 • Bortezomib 0.5 mg/kg i.p. on days 1 and 4+Cyclophosphamide 50 mg/kg i.p. on days 1 and 4 • Cyclophosphamide 50 mg/kg i.p. on days 1 and 4+Dexamethasone 0.5 mg/kg i.p. on days 1 and 4 • Dexamethasone 0.5 mg/kg i.p. on days 1 and 4+Bortezomib 0.5 mg/kg i.p. on days 1 and 4 • Triple combinations: • Bortezomib 0.5 mg/kg i.p. on days 1 and 4+Dexamethasone 0.5 mg/kg i.p. on days 1 and 4+S09 4 mg/kg i.p. each 12 hours on days 1 to 7 • Cyclophosphamide 50 mg/kg i.p. on days 1 and 4+Dexamethasone 0.5 mg/kg i.p. on days 1 and 4+S09 4 mg/kg i.p. each 12 hours on days 1 to 7
Mice were shaved on the right flank and anesthetized by inhalation to decrease their mobility, were inoculated subcutaneously with 3×10^6 MM1S cells in 50 μl of RPMI-1640 medium and 50 μl of Corning @ Matrigel® Basement Membrane Matrix. […] This was estimated by measurements with a caliper of the two tumor diameters and using the following formula of a spheroid: […]
Where a and b correspond to the longest and shortest diameter, respectively. Tumor volume was monitored three times per week.
The treatment endpoint was determined by the value of tumor volume in the mouse (a range of 2000-2200 mm3).

[2] = Growth inhibition activity, comparative test of Example 3 (cell lines not given); format: cell-based; conditions: Example 3, comparison with stapled versions
Excerpt: Following the same protocol as the one disclosed in previous sections, the following activity data were obtained: […]

[3] = day of treatment 5, relative to day 1
[4] = day of treatment 10, relative to day 1
[5] = day of treatment 15, relative to day 1
[6] = day of treatment 24, relative to day 1

Question: For `CC(C)C[C@H](NC(=O)[C@H](Cc1ccccc1)NC(=O)c1cnccn1)B(O)O` [B, bortezomib], which “normalized tumor volume percentage (%)” value ([1]; day of treatment 1 (= 100)) is on record?
Answer: Its value is 100.00%.

Question: And the Tumor volume ([1]; day of treatment 1)?
Answer: Its Tumor volume is 119.96 mm^3.

Question: What about the “normalized tumor volume percentage (%)” value [1, 3] of the same compound?
Answer: Its value is 138.36%.

Question: And the Tumor volume ([1]; day of treatment 5)?
Answer: The Tumor volume was 165.98 mm^3.

Question: What about the “normalized tumor volume percentage (%)” value [1, 4] of the same compound?
Answer: The value was 230.48%.

Question: And the Tumor volume ([1]; day of treatment 10)?
Answer: The Tumor volume was 276.48 mm^3.

Question: What about the “normalized tumor volume percentage (%)” value [1, 5] of the same compound?
Answer: The value was 470.62%.

Question: What about the Tumor volume ([1]; day of treatment 15) of the same compound?
Answer: Its Tumor volume is 564.56 mm^3.

Question: What about the “normalized tumor volume percentage (%)” value [1, 6] of the same compound?
Answer: The value was 1410.31%.

Question: What about the Tumor volume ([1]; day of treatment 24) of the same compound?
Answer: Its Tumor volume is 1691.81 mm^3.

Question: Which results are given for `O=P1(N(CCCl)CCCl)NCCCO1` (stereo not shown) [C, cyclophosphamide]?
Answer: normalized tumor volume percentage (%) ([1]; day of treatment 1 (= 100)): 100.00%; Tumor volume ([1]; day of treatment 1): 120.75 mm^3; normalized tumor volume percentage (%) [1, 3]: 156.92%; Tumor volume ([1]; day of treatment 5): 189.48 mm^3; normalized tumor volume percentage (%) [1, 4]: 247.48%; Tumor volume ([1]; day of treatment 10): 298.83 mm^3; normalized tumor volume percentage (%) [1, 5]: 552.57%; Tumor volume ([1]; day of treatment 15): 667.23 mm^3; normalized tumor volume percentage (%) [1, 6]: 1252.21%; Tumor volume ([1]; day of treatment 24): 1512.04 mm^3

Question: For `C[C@@H]1C[C@H]2[C@@H]3CCC4=CC(=O)C=C[C@]4(C)[C@@]3(F)[C@@H](O)C[C@]2(C)[C@@]1(O)C(=O)CO` [D, dexamethasone], which “normalized tumor volume percentage (%)” value ([1]; day of treatment 1 (= 100)) is on record?
Answer: The value was 100.00%.

Question: And the Tumor volume ([1]; day of treatment 1)?
Answer: Its Tumor volume is 120.35 mm^3.

Question: And the “normalized tumor volume percentage (%)” value [1, 3]?
Answer: Its value is 110.62%.

Question: What about the Tumor volume ([1]; day of treatment 5) of the same compound?
Answer: Its Tumor volume is 133.13 mm^3.

Question: And the “normalized tumor volume percentage (%)” value [1, 4]?
Answer: Its value is 270.68%.

Question: What about the Tumor volume ([1]; day of treatment 10) of the same compound?
Answer: The Tumor volume was 325.76 mm^3.

Question: What about the “normalized tumor volume percentage (%)” value [1, 5] of the same compound?
Answer: The value was 524.90%.

Question: And the Tumor volume ([1]; day of treatment 15)?
Answer: Its Tumor volume is 631.72 mm^3.

Question: What about the “normalized tumor volume percentage (%)” value [1, 6] of the same compound?
Answer: Its value is 1206.21%.

Question: And the Tumor volume ([1]; day of treatment 24)?
Answer: Its Tumor volume is 1451.67 mm^3.

Question: With “Pro-Lys-Val-Val-11e-Leu-Lys-Lys-Ala-Thr-Ala-Tyr-Ile (PKVVILKKATAYI; wild type sequence) [SEQ ID NO: 11]” as the compound, how does the growth inhibition activity [2] read?
Answer: Its growth inhibition activity is “does not present growth inhibition activity”.
